# Structures can show the parent of a compound that is named as a salt.
# How the values were obtained:
# Assay type in all cases: biochemical
# PI3Kβ = PI3Kβ (Homo sapiens (Human), UniProt P42338); test: TR-FRET enzymatic assay of PI3K isoforms (PI3Kβ); conditions: TR-FRET, 2×Km ATP, 2 μM PIP2, incubated for 30 minutes at 25° C.; read-out: β IC50
# Protocol: (§1) The compounds of formula (I) were characterized for their enzymatic activity against the PI3K isoforms. Certain compounds of the present application, including certain compounds of formula (II) and (III) were also characterized for their enzymatic activity against PI3K isoforms. The activities were measured using a time-resolved fluorescence resonance energy transfer (TR-FRET) assay.
# PI3Kδ = PI3Kδ (Homo sapiens (Human), UniProt O00329); test: TR-FRET enzymatic assay of PI3K isoforms (PI3Kδ); conditions: 2×Km ATP, 2 μM PIP2, incubated for 30 minutes at 25° C., read-out: δ IC50
# PI3Kδ, sequence (O00329 whole entry, canonical isoform): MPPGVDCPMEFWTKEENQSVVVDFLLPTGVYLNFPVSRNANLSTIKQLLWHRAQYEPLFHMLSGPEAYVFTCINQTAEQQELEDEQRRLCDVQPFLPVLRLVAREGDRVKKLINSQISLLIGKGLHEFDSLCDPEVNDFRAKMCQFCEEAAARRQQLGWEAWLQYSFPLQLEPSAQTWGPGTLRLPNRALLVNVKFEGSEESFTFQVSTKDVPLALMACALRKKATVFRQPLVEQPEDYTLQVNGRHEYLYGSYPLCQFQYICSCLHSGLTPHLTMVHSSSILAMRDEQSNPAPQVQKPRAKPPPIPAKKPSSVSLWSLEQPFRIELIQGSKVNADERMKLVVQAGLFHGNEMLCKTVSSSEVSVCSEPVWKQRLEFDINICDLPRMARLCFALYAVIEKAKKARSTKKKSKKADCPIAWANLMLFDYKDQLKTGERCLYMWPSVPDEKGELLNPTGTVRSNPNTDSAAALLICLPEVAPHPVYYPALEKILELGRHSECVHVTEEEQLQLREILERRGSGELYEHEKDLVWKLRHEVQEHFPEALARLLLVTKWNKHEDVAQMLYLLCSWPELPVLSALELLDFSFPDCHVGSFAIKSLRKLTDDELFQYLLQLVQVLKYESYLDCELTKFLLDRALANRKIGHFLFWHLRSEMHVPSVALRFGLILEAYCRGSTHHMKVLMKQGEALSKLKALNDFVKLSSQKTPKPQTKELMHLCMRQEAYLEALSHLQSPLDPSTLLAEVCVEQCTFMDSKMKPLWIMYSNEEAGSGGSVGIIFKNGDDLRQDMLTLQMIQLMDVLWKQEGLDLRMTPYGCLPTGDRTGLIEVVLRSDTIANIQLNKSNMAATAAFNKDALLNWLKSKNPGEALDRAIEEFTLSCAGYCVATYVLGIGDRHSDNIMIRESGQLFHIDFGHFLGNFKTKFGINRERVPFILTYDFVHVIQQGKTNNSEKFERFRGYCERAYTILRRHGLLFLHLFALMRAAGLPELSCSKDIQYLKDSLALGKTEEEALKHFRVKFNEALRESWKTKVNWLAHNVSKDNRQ
# PI3Kδ, sequence (P27986 whole entry partner, canonical isoform): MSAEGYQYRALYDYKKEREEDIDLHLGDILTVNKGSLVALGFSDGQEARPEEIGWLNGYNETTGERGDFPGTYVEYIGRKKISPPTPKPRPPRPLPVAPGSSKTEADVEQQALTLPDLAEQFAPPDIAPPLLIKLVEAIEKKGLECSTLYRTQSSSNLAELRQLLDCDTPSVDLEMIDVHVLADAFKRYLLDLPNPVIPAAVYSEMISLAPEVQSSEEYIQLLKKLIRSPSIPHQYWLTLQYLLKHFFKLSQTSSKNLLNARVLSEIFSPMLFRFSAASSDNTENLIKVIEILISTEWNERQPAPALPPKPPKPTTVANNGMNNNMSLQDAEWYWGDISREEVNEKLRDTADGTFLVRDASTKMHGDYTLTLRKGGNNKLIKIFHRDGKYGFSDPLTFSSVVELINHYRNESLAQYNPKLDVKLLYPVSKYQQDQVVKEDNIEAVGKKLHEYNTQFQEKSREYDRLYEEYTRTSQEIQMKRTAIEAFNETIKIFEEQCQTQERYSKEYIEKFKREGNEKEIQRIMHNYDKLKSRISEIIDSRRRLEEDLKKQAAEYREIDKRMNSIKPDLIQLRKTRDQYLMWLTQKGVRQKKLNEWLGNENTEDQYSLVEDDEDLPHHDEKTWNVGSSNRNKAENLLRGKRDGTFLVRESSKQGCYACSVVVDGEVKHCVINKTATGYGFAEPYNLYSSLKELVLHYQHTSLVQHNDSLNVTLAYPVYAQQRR
# Protocol: as §1
# PI3Kγ = PI3Kγ (Homo sapiens (Human), UniProt P48736); test: TR-FRET enzymatic assay of PI3K isoforms (PI3Kγ); conditions: TR-FRET, 2×Km ATP, 2 μM PIP2, PI3Kγ at 2 nM, incubated for 30 minutes at 25° C.; read-out: γ IC50
# PI3Kγ, sequence (P48736 whole entry, canonical isoform): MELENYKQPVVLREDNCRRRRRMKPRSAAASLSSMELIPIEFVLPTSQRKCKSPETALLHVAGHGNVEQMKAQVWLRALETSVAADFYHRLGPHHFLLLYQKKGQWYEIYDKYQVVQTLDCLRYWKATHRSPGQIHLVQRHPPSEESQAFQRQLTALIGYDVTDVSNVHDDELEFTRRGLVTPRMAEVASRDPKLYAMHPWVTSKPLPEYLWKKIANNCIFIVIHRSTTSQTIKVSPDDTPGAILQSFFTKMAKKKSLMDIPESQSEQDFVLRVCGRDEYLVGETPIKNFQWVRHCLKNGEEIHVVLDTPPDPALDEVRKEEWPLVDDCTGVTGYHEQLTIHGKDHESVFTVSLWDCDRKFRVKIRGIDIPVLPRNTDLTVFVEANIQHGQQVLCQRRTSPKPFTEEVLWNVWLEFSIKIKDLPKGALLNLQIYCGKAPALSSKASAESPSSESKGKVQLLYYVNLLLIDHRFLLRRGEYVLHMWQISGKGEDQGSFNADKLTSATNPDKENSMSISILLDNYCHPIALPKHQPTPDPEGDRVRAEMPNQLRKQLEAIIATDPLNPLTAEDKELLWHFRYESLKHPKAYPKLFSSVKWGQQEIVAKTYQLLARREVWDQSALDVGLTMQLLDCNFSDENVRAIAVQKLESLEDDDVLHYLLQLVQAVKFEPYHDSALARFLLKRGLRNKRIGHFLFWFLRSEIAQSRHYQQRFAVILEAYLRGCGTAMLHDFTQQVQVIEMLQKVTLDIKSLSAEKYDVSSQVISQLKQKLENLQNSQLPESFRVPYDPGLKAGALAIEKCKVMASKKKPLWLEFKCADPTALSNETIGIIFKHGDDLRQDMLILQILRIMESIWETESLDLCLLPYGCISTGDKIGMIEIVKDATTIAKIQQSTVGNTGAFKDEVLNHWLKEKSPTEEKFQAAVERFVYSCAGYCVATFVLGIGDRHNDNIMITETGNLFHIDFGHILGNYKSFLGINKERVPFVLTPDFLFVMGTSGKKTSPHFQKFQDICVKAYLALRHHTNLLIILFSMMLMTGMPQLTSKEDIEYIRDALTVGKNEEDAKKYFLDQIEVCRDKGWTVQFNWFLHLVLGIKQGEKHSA
# PI3Kγ, sequence (Q8WYR1 whole entry partner, canonical isoform): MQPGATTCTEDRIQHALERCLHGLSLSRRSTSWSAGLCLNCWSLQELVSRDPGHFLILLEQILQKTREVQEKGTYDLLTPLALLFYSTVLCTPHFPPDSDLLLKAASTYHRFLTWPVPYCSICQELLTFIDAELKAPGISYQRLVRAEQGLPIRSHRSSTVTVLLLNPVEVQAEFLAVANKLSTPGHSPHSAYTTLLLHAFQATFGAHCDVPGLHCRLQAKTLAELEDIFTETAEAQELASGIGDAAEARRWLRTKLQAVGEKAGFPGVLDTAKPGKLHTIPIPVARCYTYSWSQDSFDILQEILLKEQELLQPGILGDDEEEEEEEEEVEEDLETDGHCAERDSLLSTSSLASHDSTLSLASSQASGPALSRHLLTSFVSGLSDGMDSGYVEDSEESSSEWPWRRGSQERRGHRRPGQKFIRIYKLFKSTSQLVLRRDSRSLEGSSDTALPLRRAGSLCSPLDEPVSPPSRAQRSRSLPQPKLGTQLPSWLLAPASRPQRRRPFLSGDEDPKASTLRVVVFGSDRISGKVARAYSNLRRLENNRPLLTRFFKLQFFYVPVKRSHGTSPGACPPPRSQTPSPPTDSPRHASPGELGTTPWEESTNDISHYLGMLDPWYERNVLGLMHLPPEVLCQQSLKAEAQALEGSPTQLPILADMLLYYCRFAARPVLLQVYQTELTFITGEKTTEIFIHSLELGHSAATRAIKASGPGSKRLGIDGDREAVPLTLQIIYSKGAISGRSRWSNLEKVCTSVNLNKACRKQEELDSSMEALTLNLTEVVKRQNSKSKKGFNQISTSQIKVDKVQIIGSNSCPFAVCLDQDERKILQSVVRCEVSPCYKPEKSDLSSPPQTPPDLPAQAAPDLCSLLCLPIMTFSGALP
# Protocol: as §1
# PI3Kβ, sequence (P42338 whole entry, canonical isoform): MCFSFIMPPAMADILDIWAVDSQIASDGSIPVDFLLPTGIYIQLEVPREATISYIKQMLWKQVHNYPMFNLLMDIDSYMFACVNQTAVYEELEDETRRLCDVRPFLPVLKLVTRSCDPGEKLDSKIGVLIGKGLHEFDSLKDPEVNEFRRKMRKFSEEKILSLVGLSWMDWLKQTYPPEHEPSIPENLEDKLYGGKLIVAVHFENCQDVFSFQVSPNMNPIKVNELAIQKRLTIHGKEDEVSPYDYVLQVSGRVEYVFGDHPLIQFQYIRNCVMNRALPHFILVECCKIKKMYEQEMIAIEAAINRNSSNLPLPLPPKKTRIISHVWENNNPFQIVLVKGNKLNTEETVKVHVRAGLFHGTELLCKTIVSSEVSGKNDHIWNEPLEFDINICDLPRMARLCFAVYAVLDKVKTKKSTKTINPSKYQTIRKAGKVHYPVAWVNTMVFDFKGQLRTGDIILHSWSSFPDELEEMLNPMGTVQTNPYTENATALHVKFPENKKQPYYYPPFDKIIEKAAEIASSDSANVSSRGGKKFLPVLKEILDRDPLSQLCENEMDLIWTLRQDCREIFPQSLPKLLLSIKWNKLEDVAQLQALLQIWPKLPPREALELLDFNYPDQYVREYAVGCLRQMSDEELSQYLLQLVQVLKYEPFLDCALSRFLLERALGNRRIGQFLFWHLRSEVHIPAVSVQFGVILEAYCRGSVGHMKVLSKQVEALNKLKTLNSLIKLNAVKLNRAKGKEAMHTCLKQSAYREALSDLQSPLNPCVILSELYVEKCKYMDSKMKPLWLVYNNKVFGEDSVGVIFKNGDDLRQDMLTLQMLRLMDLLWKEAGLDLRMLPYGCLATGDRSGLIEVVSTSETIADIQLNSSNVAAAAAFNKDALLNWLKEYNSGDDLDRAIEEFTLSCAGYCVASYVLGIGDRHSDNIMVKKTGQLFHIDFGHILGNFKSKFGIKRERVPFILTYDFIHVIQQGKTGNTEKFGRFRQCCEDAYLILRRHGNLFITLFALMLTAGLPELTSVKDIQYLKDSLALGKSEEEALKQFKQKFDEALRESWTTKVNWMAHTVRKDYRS
# PI3Kβ, sequence (P27986 whole entry partner, canonical isoform): as the sequence (P27986 whole entry partner, canonical isoform) above
Compound,IC50 (PI3Kβ),IC50 (PI3Kδ),IC50 (PI3Kγ)
"CCNC(=O)Nc1cccc(-n2c([C@H](C)Nc3ncnc(N)c3C#N)nc3c(F)cccc3c2=O)c1 [Compound 49, (S)-1-(3-(2-(1-((6-amino-5-cyanopyrimidin-4-yl)amino)ethyl)-8-fluoro-4-oxoquinazolin-3(4H)-yl)phenyl)-3-ethylurea]",0.23 µM,0.024 µM,> 10 µM
"CCNC(=O)Nc1cccc(-n2c([C@H](C)Nc3ncnc(N)c3C#N)nc3c(F)ccc(F)c3c2=O)c1 [Compound 50, (S)-1-(3-(2-(1-((6-amino-5-cyanopyrimidin-4-yl)amino)ethyl)-5,8-difluoro-4-oxoquinazolin-3(4H)-yl)phenyl)-3-ethylurea]",0.084 µM,0.022 µM,> 10 µM
"CCNC(=O)Nc1cccc(-n2c([C@H](C)Nc3ncnc(N)c3C#N)nc3ccccc3c2=O)c1 [Compound 52, (S)-1-(3-(2-(1-((6-amino-5-cyanopyrimidin-4-yl)amino)ethyl)-4-oxoquinazolin-3(4H)-yl)phenyl)-3-ethylurea]",0.34 µM,0.039 µM,> 10 µM
"CCNC(=O)Nc1cccc(-n2c([C@H](C)Nc3ncnc(N)c3C#N)nc3ccc(F)cc3c2=O)c1 [Compound 53, (S)-1-(3-(2-(1-((6-amino-5-cyanopyrimidin-4-yl)amino)ethyl)-6-fluoro-4-oxoquinazolin-3(4H)-yl)phenyl)-3-ethylurea]",0.55 µM,0.075 µM,> 10 µM
"CCNC(=O)Nc1cccc(-n2c([C@H](C)Nc3ncnc(N)c3C#N)nc3cc(F)ccc3c2=O)c1 [Compound 54, (S)-1-(3-(2-(1-((6-amino-5-cyanopyrimidin-4-yl)amino)ethyl)-7-fluoro-4-oxoquinazolin-3(4H)-yl)phenyl)-3-ethylurea]",2.6 µM,0.25 µM,> 10 µM
"CCNC(=O)Nc1cccc(-n2c([C@H](C)Nc3ncnc(N)c3C#N)nc3cccc(C)c3c2=O)c1 [Compound 55, (S)-1-(3-(2-(1-((6-amino-5-cyanopyrimidin-4-yl)amino)ethyl)-5-methyl-4-oxoquinazolin-3(4H)-yl)phenyl)-3-ethylurea]",0.012 µM,0.003 µM,1.8 µM
"CCNC(=O)Nc1cccc(-n2c([C@H](C)Nc3ncnc(N)c3C#N)nc3cccc(OC)c3c2=O)c1 [Compound 56, (S)-1-(3-(2-(1-((6-amino-5-cyanopyrimidin-4-yl)amino)ethyl)-5-methoxy-4-oxoquinazolin-3(4H)-yl)phenyl)-3-ethylurea]",6.6 µM,0.88 µM,> 10 µM
"CCNC(=O)Nc1cccc(-n2c([C@H](C)N(C)c3ncnc(N)c3C#N)nc3cccc(Cl)c3c2=O)c1 [Compound 57, (S)-1-(3-(2-(1-((6-amino-5-cyanopyrimidin-4-yl)(methyl)amino)ethyl)-5-chloro-4-oxoquinazolin-3(4H)-yl)phenyl)-3-ethylurea]",0.58 µM,0.61 µM,> 10 µM
"CCNC(=O)Nc1cccc(-n2c([C@H](C)Nc3ncnc(N)c3C#N)nc3c(F)ccc(Cl)c3c2=O)c1 [Compound 62, (S)-1-(3-(2-(1-((6-amino-5-cyanopyrimidin-4-yl)amino)ethyl)-5-chloro-8-fluoro-4-oxoquinazolin-3(4H)-yl)phenyl)-3-ethylurea]",0.007 µM,0.004 µM,3.8 µM
"C[C@H](Nc1ncnc(N)c1C#N)c1nc2c(Cl)ccc(Cl)c2c(=O)n1-c1cccc(NC(=O)NCCCO)c1 [Compound 64, (S)-1-(3-(2-(1-((6-amino-5-cyanopyrimidin-4-yl)amino)ethyl)-5,8-dichloro-4-oxoquinazolin-3(4H)-yl)phenyl)-3-(3-hydroxypropyl)urea]",0.007 µM,0.008 µM,> 10 µM
"C[C@H](Nc1ncnc(N)c1C#N)c1nc2c(Cl)cccc2c(=O)n1-c1cccc(NC(=O)NCCCO)c1 [Compound 65, (S)-1-(3-(2-(1-((6-amino-5-cyanopyrimidin-4-yl)amino)ethyl)-8-chloro-4-oxoquinazolin-3(4H)-yl)phenyl)-3-(3-hydroxypropyl)urea]",0.22 µM,0.082 µM,> 10 µM
"C[C@H](Nc1ncnc(N)c1C#N)c1nc2c(F)ccc(Cl)c2c(=O)n1-c1cccc(NC(=O)NCCCO)c1 [Compound 66, (S)-1-(3-(2-(1-((6-amino-5-cyanopyrimidin-4-yl)amino)ethyl)-5-chloro-8-fluoro-4-oxoquinazolin-3(4H)-yl)phenyl)-3-(3-hydroxypropyl)urea]",0.004 µM,0.009 µM,3.7 µM
"C[C@H](Nc1ncnc(N)c1C#N)c1nc2c(F)ccc(F)c2c(=O)n1-c1cccc(NC(=O)NCCCO)c1 [Compound 67, (S)-1-(3-(2-(1-((6-amino-5-cyanopyrimidin-4-yl)amino)ethyl)-5,8-difluoro-4-oxoquinazolin-3(4H)-yl)phenyl)-3-(3-hydroxypropyl)urea]",0.038 µM,0.098 µM,> 10 µM
"C[C@H](Nc1ncnc(N)c1C#N)c1nc2c(F)cccc2c(=O)n1-c1cccc(NC(=O)NCCCO)c1 [Compound 68, (S)-1-(3-(2-(1-((6-amino-5-cyanopyrimidin-4-yl)amino)ethyl)-8-fluoro-4-oxoquinazolin-3(4H)-yl)phenyl)-3-(3-hydroxypropyl)urea]",0.22 µM,0.13 µM,> 10 µM
"CCNC(=O)Nc1cccc(-n2c([C@H](C)Nc3ncnc(N)c3C#N)nc3cccc(C#N)c3c2=O)c1 [Compound 69, (S)-1-(3-(2-(1-((6-amino-5-cyanopyrimidin-4-yl)amino)ethyl)-5-cyano-4-oxoquinazolin-3(4H)-yl)phenyl)-3-ethylurea 2,2,2-trifluoroacetic acid salt]",0.11 µM,0.008 µM,5.2 µM
"CCNC(=O)Nc1cccc(-n2c([C@H](C)Oc3ncnc(N)c3C#N)nc3cccc(Cl)c3c2=O)c1 [Compound 70, (S)-1-(3-(2-(1-((6-amino-5-cyanopyrimidin-4-yl)oxy)ethyl)-5-chloro-4-oxoquinazolin-3(4H)-yl)phenyl)-3-ethylurea]",0.012 µM,0.002 µM,1.5 µM
"CCNC(=O)Nc1cccc(-n2c([C@H](C)Nc3ncnc4scnc34)nc3cccc(Cl)c3c2=O)c1 [Compound 72, (S)-1-(3-(5-chloro-4-oxo-2-(1-(thiazolo[5,4-d]pyrimidin-7-ylamino)ethyl)quinazolin-3(4H)-yl)phenyl)-3-ethylurea]",0.004 µM,0.005 µM,1.3 µM
"CCNC(=O)Nc1cccc(-n2c([C@@H]3C[C@H](F)CN3c3ncnc(N)c3C#N)nc3cccc(Cl)c3c2=O)c1 [Compound 73, 1-(3-(2-((2S,4S)-1-(6-amino-5-cyanopyrimidin-4-yl)-4-fluoropyrrolidin-2-yl)-5-chloro-4-oxoquinazolin-3(4H)-yl)phenyl)-3-ethylurea]",0.038 µM,0.017 µM,5.6 µM
"C[C@H](Nc1ncnc(N)c1C#N)c1nc2cccc(Cl)c2c(=O)n1-c1cccc(NC(=O)NC2(C(F)(F)F)CC2)c1 [Compound 75, (S)-1-(3-(2-(1-((6-amino-5-cyanopyrimidin-4-yl)amino)ethyl)-5-chloro-4-oxoquinazolin-3(4H)-yl)phenyl)-3-(1-(trifluoromethyl)cyclopropyl)urea]",0.01 µM,0.009 µM,> 10 µM
"C[C@H](Nc1ncnc(N)c1C#N)c1nc2cccc(Cl)c2c(=O)n1-c1cccc(NC(=O)NCC(F)(F)F)c1 [Compound 76, (S)-1-(3-(2-(1-((6-amino-5-cyanopyrimidin-4-yl)amino)ethyl)-5-chloro-4-oxoquinazolin-3(4H)-yl)phenyl)-3-(2,2,2-trifluoroethyl)urea]",0.005 µM,0.007 µM,4.4 µM
"CC(C)NC(=O)Nc1cc(-n2c([C@H](C)Nc3ncnc(N)c3C#N)nc3cccc(Cl)c3c2=O)ccc1F [Compound 77, (S)-1-(5-(2-(1-((6-amino-5-cyanopyrimidin-4-yl)amino)ethyl)-5-chloro-4-oxoquinazolin-3(4H)-yl)-2-fluorophenyl)-3-isopropylurea]",0.42 µM,0.027 µM,9.5 µM
"CCNC(=O)Nc1cc(-n2c([C@H](C)Nc3ncnc(N)c3C#N)nc3cccc(Cl)c3c2=O)ccc1F [Compound 78, (S)-1-(5-(2-(1-((6-amino-5-cyanopyrimidin-4-yl)amino)ethyl)-5-chloro-4-oxoquinazolin-3(4H)-yl)-2-fluorophenyl)-3-ethylurea]",0.016 µM,0.032 µM,4.9 µM
"C[C@H](Nc1ncnc(N)c1C#N)c1nc2cccc(Cl)c2c(=O)n1-c1cccc(NC(=O)NS(=O)(=O)C2CCCC2)c1 [Compound 79, (S)—N-((3-(2-(1-((6-amino-5-cyanopyrimidin-4-yl)amino)ethyl)-5-chloro-4-oxoquinazolin-3(4H)-yl)phenyl)carbamoyl)cyclopentanesulfonamide]",0.071 µM,0.002 µM,0.68 µM
"C[C@H](Nc1ncnc2scnc12)c1nc2cccc(Cl)c2c(=O)n1-c1cccc(NC(=O)NS(=O)(=O)C2CCCC2)c1 [Compound 80, (S)—N-((3-(5-chloro-4-oxo-2-(1-(thiazolo[5,4-d]pyrimidin-7-ylamino)ethyl)quinazolin-3(4H)-yl)phenyl)carbamoyl)cyclopentanesulfonamide]",0.12 µM,0.0009 µM,0.25 µM
